Experimental data taken from ChEMBL document CHEMBL5346955, “Discovery of HPG1860, a Structurally Novel Nonbile Acid FXR Agonist Currently in Clinical Development for the Treatment of Nonalcoholic Steatohepatitis” (J Med Chem, 2023).
Values after ≈ are worked out from the molar mass of the structure shown. Active and inactive are the calls of the source. The rule behind the calls is not given here.

What was measured:
Bile acid receptor [1] = target: T1, Bile acid receptor (Homo sapiens, UniProt Q96RI1); experiment: Agonist activity at human GAL4-FXR-LBD expressed in HEK293T cells assessed as transcriptional activity measured after 16 to 20 hrs by luciferase reporter gene assay; assay type: cell-based
T1 sequence (Q96RI1 whole entry): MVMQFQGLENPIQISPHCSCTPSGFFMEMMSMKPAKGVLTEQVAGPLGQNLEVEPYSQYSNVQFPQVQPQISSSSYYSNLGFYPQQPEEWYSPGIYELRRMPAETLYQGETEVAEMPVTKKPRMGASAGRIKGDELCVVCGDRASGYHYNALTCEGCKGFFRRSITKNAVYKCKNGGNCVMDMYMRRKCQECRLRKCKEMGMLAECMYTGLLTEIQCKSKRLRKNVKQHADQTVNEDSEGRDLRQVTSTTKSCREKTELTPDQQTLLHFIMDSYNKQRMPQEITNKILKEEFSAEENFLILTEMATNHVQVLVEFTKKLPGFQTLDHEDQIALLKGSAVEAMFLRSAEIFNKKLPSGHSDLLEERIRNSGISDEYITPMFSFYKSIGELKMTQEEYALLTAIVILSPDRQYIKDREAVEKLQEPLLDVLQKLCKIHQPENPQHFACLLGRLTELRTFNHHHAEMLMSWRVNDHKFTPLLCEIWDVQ

Bile acid receptor [2] = target: T1, Bile acid receptor; experiment: Agonist activity at GST-tagged human FXR-LBD in presence of luorescein-SRC2-2 coactivator peptide by TR-FRET assay
[3] = Metabolic stability in cynomolgus monkey liver microsomes assessed as half life at 1 uM measured upto 120 mins by UPLC/MS/MS analysis; assay type: ADME, Macaca fascicularis, Microsome
[4] = Metabolic stability in dog liver microsomes assessed as half life at 1 uM measured upto 120 mins by UPLC/MS/MS analysis; assay type: ADME, Canis lupus familiaris, Microsome
[5] = Metabolic stability in human liver microsomes assessed as half life at 1 uM measured upto 120 mins by UPLC/MS/MS analysis; assay type: ADME, Microsome
[6] = Metabolic stability in rat liver microsomes assessed as half life at 1 uM measured upto 120 mins by UPLC/MS/MS analysis; assay type: ADME, Microsome
[7] = Solubility of the compound in PBS buffer at pH 7.4; assay type: physicochemical
Mus musculus [8] = experiment: Anti-nonalcoholic steatohepatitis activity against ccl4-induced C57BL/6J mouse model assessed as improvement in liver inflammation at 30 mg/kg, po qd treated for 28 days; assay type: functional, organism-based; conditions: time 28.0 day
[9] = Toxicity in C57BL/6J mouse assessed as change in body weight at 30 mg/kg, po qd; assay type: organism-based; conditions: in vivo
Mus musculus [10] = experiment: Anti-nonalcoholic steatohepatitis activity against ccl4-induced C57BL/6J mouse model assessed as clearance of liver steatosis at 30 mg/kg, po qd treated for 28 days; assay type: functional, organism-based; conditions: time 28.0 day
Mus musculus [11] = experiment: Anti-nonalcoholic steatohepatitis activity against ccl4-induced C57BL/6J mouse model assessed as decrease in ALT level in liver at 30 mg/kg, po qd treated for 28 days; assay type: functional, organism-based; conditions: time 28.0 day
Mus musculus [12] = experiment: Anti-nonalcoholic steatohepatitis activity against ccl4-induced C57BL/6J mouse model assessed as reduction total cholesterol in serum at 30 mg/kg, po qd treated for 28 days; assay type: functional, organism-based; conditions: time 28.0 day
Mus musculus [13] = experiment: Anti-nonalcoholic steatohepatitis activity against ccl4-induced C57BL/6J mouse model assessed as improvement in fibrosis at 30 mg/kg, po qd treated for 28 days; assay type: functional, organism-based; conditions: time 28.0 day
Mus musculus [14] = experiment: Anti-nonalcoholic steatohepatitis activity against ccl4-induced C57BL/6J mouse model assessed as decrease in AST level in liver at 30 mg/kg, po qd treated for 28 days; assay type: functional, organism-based; conditions: time 28.0 day

Row | EC50 (Bile acid receptor [1]) | EC50 (Bile acid receptor [2]) | Structure (SMILES) | other results
1 | > 5 µM | 0.067 µM | CC(C)c1onc(-c2c(Cl)cccc2Cl)c1CN1CCN(c2cc3cc(C(=O)O)ccc3n2C)CC1 | 
2 | 0.039 µM | 0.006 µM | C[C@@H]1CN(Cc2c(-c3c(Cl)cccc3Cl)noc2C2CC2)CCN1c1nc2c(F)cc(C(=O)O)cc2s1 | half-life at 1 µM [3]: 1.94 h; half-life at 1 µM [4]: 6.67 h; half-life at 1 µM [5]: 1.47 h; half-life at 1 µM [6]: 1.54 h; solubility [7]: 129 µM (≈ 72.5 µg/mL)
3 | > 5 µM |  | CC(C)c1onc(-c2c(Cl)cccc2Cl)c1CN1CCN(c2nc3cccc(C(=O)O)c3s2)CC1 | 
4 | > 5 µM | 0.2 µM | COc1cc(C(=O)O)cc2sc(C3CCN(Cc4c(-c5c(Cl)cccc5Cl)noc4C(C)C)CC3)nc12 | 
5 | 0.085 µM | 0.021 µM | CCC1CN(Cc2c(-c3c(Cl)cccc3Cl)noc2C(C)C)CCN1c1nc2c(OC)cc(C(=O)O)cc2s1 (stereo not given) | 
6 | 0.127 µM | 0.037 µM | COc1cc(C(=O)O)cc2sc(N3CCN(Cc4c(-c5c(Cl)cccc5Cl)noc4C(C)C)CC3(C)C)nc12 | 
7 |  |  | CC[C@H]1[C@@H](O)C2[C@@H]3CC[C@H]([C@H](C)CCC(=O)O)[C@@]3(C)CC[C@@H]2[C@@]2(C)CC[C@@H](O)C[C@@H]12 (stereo not given in full) | Activity (Mus musculus [8]): inactive; Activity [9]: Non-Toxic; Activity (Mus musculus [10]): Active; Activity (Mus musculus [11]): inactive; Activity (Mus musculus [12]): Active; Activity (Mus musculus [13]): Active; Activity (Mus musculus [14]): inactive
8 | > 5 µM | 0.266 µM | COc1cc(C(=O)O)cc2sc(C3CCN(Cc4c(-c5c(Cl)cccc5Cl)noc4C(C)C)C3)nc12 (stereo not given) | 
